The record followed here is patent US20120010177A1, “MicroRNA Modulators and Method for Identifying And Using The Same” (The Wistar Institute / North Carolina State University, priority 2008, published 2012).

For one assay, the system named is miR-21. Put plainly: High throughput primary miR-21 FLuc reporter assay (concentration-response). Type of assay: cell-based, human. Conditions: HeLa Luc-miR-21 reporter, 48-hour incubation. The protocol:
Primary miR-21 Assay. The primary miR-21 FLuc reporter assay is carried out with HeLa cells expressing the Luc-miR-21 reporter using a 48-hour incubation time. Active compounds that increase the luciferase response are identified based upon inhibition of miR-21.
SAR. The concentration-response data for the entire high throughput screen is plotted and modeled by a four parameter logistic fit and SAR analysis is performed according to conventional approaches (Iglese, et al. (2006) Proc. Natl. Acad. Sci. USA […]:11473-8). In brief, Class 1.1 and 1.2 are full curves containing upper and lower asymptotes with efficacy ≧80% and <80%, respectively. Class 2.1 and 2.2 are incomplete curves having only one asymptote with efficacy ≧80% and <80%, respectively. Class 3 curves show activity at only the highest concentration or are poorly fit. […] For SAR analysis, compounds associated with Class 1 and 2.1 curves are clustered using LEADSCOPE® fingerprints. […] Compounds sharing a common scaffold form a series. Candidate series and singletons are chosen for follow up studies. For each lead or series, an appropriate library design method (e.g., point substitution library or matrix library) is selected. Typically, precursors are synthesized and a library of 15-25 compounds is produced for analysis in the above-described assays.
`COc1ccc2cc(OCC(=O)NNC(=O)Nc3ccc(C(C)=O)cc3)ccc2c1` [Compound 183, COC1═C/C═C2/C═C(OCC(═O)NNC(═O)NC3═C/C═C(\C═C\3)C(C)═O)\C═C/C\2═C\1] showed an Efficacy of −65.21.

With `CC(=NNC(=O)c1ccoc1C)c1cccc2ccccc12` [Compound 209, CC(═NNC(═O)C1═C(C)/O/C═C\1)C2═C/C═C\C3═C\C═C/C═C\2\3], the Efficacy is −65.67.

The assay is the same for the next values; noted with them: HeLa Luc-miR-21 reporter, 48-hour incubation, four parameter logistic fit.
Turning to `COc1ccc2cc(OCC(=O)NNC(=O)Nc3ccc(C(C)=O)cc3)ccc2c1` [Compound 183, COC1═C/C═C2/C═C(OCC(═O)NNC(═O)NC3═C/C═C(\C═C\3)C(C)═O)\C═C/C\2═C\1], the “Curve Class” value was −2.2.

With `CC(=NNC(=O)c1ccoc1C)c1cccc2ccccc12` [Compound 209, CC(═NNC(═O)C1═C(C)/O/C═C\1)C2═C/C═C\C3═C\C═C/C═C\2\3], the “Curve Class” value is −2.2.

Still in this assay, the particulars now being: HeLa Luc-miR-21 reporter, 48-hour incubation; read-out: AC50.
The term AC50 denotes the concentration giving half of the maximal activity seen. Turning to `COc1ccc2cc(OCC(=O)NNC(=O)Nc3ccc(C(C)=O)cc3)ccc2c1` [Compound 183, COC1═C/C═C2/C═C(OCC(═O)NNC(═O)NC3═C/C═C(\C═C\3)C(C)═O)\C═C/C\2═C\1], the AC50 was determined as 16.5 µM.

`CC(=NNC(=O)c1ccoc1C)c1cccc2ccccc12` [Compound 209, CC(═NNC(═O)C1═C(C)/O/C═C\1)C2═C/C═C\C3═C\C═C/C═C\2\3]: the AC50 came out at 7.36 µM.

The same assay, now with this note: Homo sapiens, HeLa, 48 h, HeLa Luc-miR-21 reporter, 48-hour incubation; read-out: AC50.
As to `CCC(C)NC(=O)CSc1ccc(Cl)cc1` (stereo not drawn) [Compound 162], the AC50 is 18.5 µM.

As for `CCOc1ccc(NC(=O)CSc2ccc3ccccc3n2)cc1` [Compound 163], the AC50 was 18.5 µM.

As for `O=C(CSc1nnc(-c2ccc(Br)cc2)o1)Nc1cccc2ccccc12` [Compound 164], the AC50 is 18.5 µM.

For the compound `COc1ccc(OCC(=O)Nc2ccc(-c3nc4cc(C)c(C)cc4o3)cc2)cc1` [Compound 165], the AC50 amounted to 0.13 µM.

Take `O=C(COc1ccccc1F)Nc1ccc(-c2nc3ccccc3s2)cc1` [Compound 166]: the AC50 is 1.47 µM.

With `COc1ccc(OCC(=O)Nc2ccc(-c3nc4cc(Cl)ccc4o3)cc2)cc1` [Compound 167], the AC50 worked out at 2.93 µM.

Take `Cc1cccc(OCC(=O)Nc2sc3c(c2C#N)CCC3)c1` [Compound 168]: the AC50 is 6.56 µM.

With `Cc1ccc(OCC(=O)N(Cc2ccco2)c2ccccn2)cc1` [Compound 169], the AC50 is 14.7 µM.

As for `CCCNC(=O)COCc1cc(-c2ccc(F)cc2)on1` [Compound 170], the AC50 worked out at 16.5 µM.

For the compound `CCn1c2ccccc2c2cc(NC(=O)COC(=O)Cc3cn4ccsc4n3)ccc21` [Compound 171], the AC50 was determined as 16.5 µM.

Consider `O=C(COc1ccccc1[N+](=O)[O-])N/N=C/c1ccc(O)cc1` [Compound 172], for which the AC50 is 11.7 µM.

As for `O=C(COc1ccccc1[N+](=O)[O-])N/N=C/c1cccc(OC(=O)c2ccc3c(c2)OCO3)c1` [Compound 173], the AC50 came out at 18.5 µM.

In the case of `CC(=O)Nc1ccc(NC(=O)COc2ccc(Cl)cc2Cl)cc1` [Compound 175], the AC50 came out at 14.7 µM.

In the case of `COCC(=O)Nc1nnc(C2CCCCC2)s1` [Compound 176], the AC50 is 16.5 µM.

As to `COc1ccc(-c2csc(NC(=O)COC(=O)c3ccc(Br)o3)n2)cc1` [Compound 177], the AC50 was 2.93 µM.

For `COCC(=O)Nc1ccc(C(=O)Nc2ccccc2Cl)cc1` [Compound 178], the AC50 worked out at 11.7 µM.

On to `CC(C)c1nnc(NC(=O)COc2ccccc2[N+](=O)[O-])s1` [Compound 179], for which the AC50 is 9.27 µM.

For `Cc1cc(CC(C)C)n(-c2nc3ccccc3c(=O)n2OCC(N)=O)n1` [Compound 180], the AC50 was 14.7 µM.

For the compound `C=CCNC(=S)NNC(=O)COc1ccc2cc(Br)ccc2c1` [Compound 181], the AC50 was 7.36 µM.

Consider `NC(=O)COC(=O)c1ccc2noc(-c3ccccc3)c2c1` [Compound 182], for which the AC50 turned out to be 6.56 µM.

For the compound `COc1ccc(OCC(=O)Nc2cc(-c3nc4ccccc4s3)ccc2C)cc1` [Compound 184], the AC50 is 4.65 µM.

Consider `C/C(=N\NC(=O)c1ccncc1)c1ccc(NC(=O)c2ccc(Cl)cc2)cc1` [Compound 185], for which the AC50 was found to be 1.47 µM.

Consider `O=C(NN=C1CCCC1)c1cccs1` [Compound 186], for which the half-maximal activity concentration (AC50) is 1.65 µM.

Consider `COc1ccc(NC(=O)C/C(C)=N/NC(=O)c2ccccn2)c(OC)c1` [Compound 187], for which the AC50 turned out to be 1.85 µM.

`COc1ccccc1NC(=O)C/C(C)=N/NC(=O)c1ccccn1` [Compound 188]: the AC50 was found to be 1.85 µM.

As to `CC(=O)Nc1ccccc1NC(=O)C/C(C)=N/NC(=O)c1ccccn1` [Compound 189], the AC50 stood at 1.85 µM.

As to `COc1ccc(NC(=O)C/C(C)=N/NC(=O)c2cccs2)c([N+](=O)[O-])c1` [Compound 190], the AC50 came out at 1.85 µM.

`C/C(=N\N1C(=O)c2ccccc2NC1c1ccccc1)c1ccccc1O` (stereo not drawn) [Compound 192]: the AC50 was determined as 2.61 µM.

For the compound `O=C(Cc1cccs1)N/N=C/C(Cl)=C/c1ccccc1` [Compound 193], the concentration at half-maximal activity (AC50) was 2.93 µM.

For the compound `COc1cc(NC(=O)C/C(C)=N/NC(=O)c2ccccn2)c(OC)cc1Cl` [Compound 194], the AC50 amounted to 3.69 µM.

As for `C/C(CC(=O)Nc1cc(C)cc(C)c1)=N\NC(=O)c1ccccn1` [Compound 195], the AC50 stood at 4.65 µM.

With `C/C(=N\NC(=O)c1ccco1)c1ccc(C(=O)O)s1` [Compound 196], the AC50 was determined as 4.65 µM.

Consider `C/C(=N\NC(=O)c1ccccc1)c1ccc(NC(=O)C(F)(F)F)cc1` [Compound 197], for which the AC50 was 4.65 µM.

Take `Nc1ccccc1C(=O)N/N=C1\CCC\C1=C(\O)C(F)(F)F` [Compound 198]: the AC50 is 5.21 µM.

On to `O=C(N/N=C1\CC2C=CCC12)c1ccco1` (stereo not drawn) [Compound 199], for which the AC50 was determined as 5.21 µM.

Regarding `C/C(CC(=O)NC(C)(C)C)=N\NC(=O)c1ccccc1N` [Compound 200], the AC50 turned out to be 5.21 µM.

For `CC1C2CC(C/C2=N\NC(=O)c2cccs2)C1(C)C` (stereo not drawn) [Compound 201], the AC50 turned out to be 5.21 µM.

On to `Cc1ccc(N/C(S)=N/NC(=O)c2nn(C)c(C)c2Cl)cc1` [Compound 203], for which the AC50 came out at 5.85 µM.

As for `O=C(Cc1cccs1)N/N=C/C=C/c1ccccc1[N+](=O)[O-]` [Compound 204], the AC50 turned out to be 6.56 µM.

In the case of `C/C(CC(=O)NC(C)(C)C)=N\NC(=O)c1ccco1` [Compound 205], the AC50 came out at 6.56 µM.

In the case of `CC(C)N1CCC(=NNC(=O)c2cccs2)CC1` [Compound 206], the AC50 was 6.56 µM.

For `Cc1ccc(C)c(N/C(S)=N/NC(=O)c2csc(C)c2C)c1` [Compound 207], the concentration at half-maximal activity (AC50) is 6.56 µM.

As for `COc1ccc(N/C(S)=N/NC(=O)c2cccs2)cc1` [Compound 208], the AC50 came to 7.36 µM.

Consider `Cc1occc1C(=O)N/N=C(\S)Nc1ccccc1C(F)(F)F` [Compound 211], for which the AC50 is 8.26 µM.

Consider `COc1ccc(C2=NN(C(C)=O)C(c3cccs3)C2)cc1OC` (stereo not drawn) [Compound 212], for which the AC50 is 8.26 µM.

As for `C/C(CC(=O)NCc1ccccc1Cl)=N\NC(=O)c1ccccn1` [Compound 213], the AC50 stood at 8.26 µM.

Turning to `CCCCC12CN3CCN(CC(C3)/C1=N/NC(=O)c1ccccc1N)C2` [Compound 214], the AC50 was 9.27 µM.

Take `C/C(=N\NC(=O)c1ccc(Br)o1)c1ccc(C)o1` [Compound 216]: the AC50 was 10.4 µM.

With `CC1=NN(C(=O)c2ccoc2C)C(O)(C(F)(F)F)C1` (stereo not drawn) [Compound 217], the AC50 turned out to be 10.4 µM.

As for `C/C(=N\NC(=O)c1ccoc1C)c1ccc(Br)s1` [Compound 219], the AC50 stood at 11.7 µM.

On to `O=C(N/N=C/c1cccc([N+](=O)[O-])c1)c1nc(O)c2ccccc2n1` [Compound 220], for which the AC50 came to 11.7 µM.

For `O=C(N/N=C1\CC2C=CCC12)c1cccs1` (stereo not drawn) [Compound 221], the AC50 was found to be 11.7 µM.

On to `C/C(CCc1ccccc1)=N\NC(=O)c1ccccc1` [Compound 222], for which the AC50 came to 13.1 µM.

Regarding `Cc1ccsc1/C=N/NC(=O)c1ccc(-n2cccc2)cc1` [Compound 223], the AC50 came out at 13.1 µM.

Turning to `O=C(N/N=C/c1ccc2cccnc2c1)c1nc(O)c2ccccc2n1` [Compound 224], the AC50 was determined as 13.1 µM.

`C/C(CCc1ccc2c(c1)OCO2)=N\NC(=O)c1ccccc1` [Compound 225]: the AC50 worked out at 13.1 µM.

In the case of `O=C(O)c1ccccc1C(=O)N1N=C(c2ccccc2)CC1c1ccccc1O` (stereo not drawn) [Compound 226], the AC50 was found to be 14.7 µM.

Consider `CC(=O)N1N=C(c2ccc(C)cc2)OC1c1cccnc1` (stereo not drawn) [Compound 228], for which the AC50 is 16.5 µM.

As to `C/C(=N\NC(=O)c1ccco1)c1ccc(NC(=O)C(F)(F)F)cc1` [Compound 229], the AC50 came out at 16.5 µM.

As for `CCCCCCC1/C(=N\NC(=O)c2ccccc2)CCC1C(=O)OC` (stereo not drawn) [Compound 230], the AC50 was determined as 16.5 µM.

`CC1=NN(C(=O)c2ccc(C)o2)C(O)(c2ccccc2)C1` (stereo not drawn) [Compound 231]: the AC50 came out at 16.5 µM.

Turning to `C/C(=N\NC(=O)c1nn(C)cc1Br)c1ccc(NC(=O)c2ccncc2)cc1` [Compound 234], the AC50 was found to be 18.5 µM.

Regarding `O=C(N/N=C/c1ccc(OC(=O)c2cccs2)cc1)c1cccc(F)c1` [Compound 235], the AC50 amounted to 18.5 µM.

Regarding `C/C(Cn1cnc([N+](=O)[O-])n1)=N\NC(=O)c1ccccc1` [Compound 236], the AC50 was 20.8 µM.

As to `COc1ccc(NC(=O)C/C(C)=N/NC(=O)c2ccco2)c([N+](=O)[O-])c1` [Compound 237], the AC50 came out at 20.8 µM.

For the compound `Cc1oc(/C=N/NS(=O)(=O)c2ccccc2)cc1Br` [Compound 238], the AC50 was found to be 13.1 µM.

As to `Cc1ccccc1OCCn1cnc2c(N)ncnc21` [Compound 239], the AC50 worked out at 9.27 µM.

For the compound `Cc1ccc(OCCn2cnc3c(N)ncnc32)cc1` [Compound 240], the AC50 came to 16.5 µM.

In the case of `COc1cc(-c2nc3cnccn3c2Nc2ccc(C(C)C)cc2)ccc1O` [Compound 241], the AC50 amounted to 3.29 µM.

`Cc1ccc(-c2nc3ncccn3c2Nc2ccc3c(c2)OCCO3)o1` [Compound 242]: the AC50 was 16.5 µM.

`Cc1ccc(-c2nc3cnccn3c2Nc2ccccc2)o1` [Compound 243]: the AC50 amounted to 16.5 µM.

Take `Cc1ccc(Nc2c(-c3ccc(C)o3)nc3cnccn23)cc1` [Compound 244]: the AC50 was found to be 16.5 µM.
